The text below walks through data of US7317125B2 (Hoffman-La Roche Inc., priority 2005, dated 2008).

For orientation: EC50 means the concentration that produces a half-maximal response. Lower therefore signals an effect from little substance.

For the assay, the target named is T1, DGAT1 (Homo sapiens, UniProt O75907).
T1 construct: expressed in transfected cells; host or cells: CHOK1
T1 sequence (O75907 1-488): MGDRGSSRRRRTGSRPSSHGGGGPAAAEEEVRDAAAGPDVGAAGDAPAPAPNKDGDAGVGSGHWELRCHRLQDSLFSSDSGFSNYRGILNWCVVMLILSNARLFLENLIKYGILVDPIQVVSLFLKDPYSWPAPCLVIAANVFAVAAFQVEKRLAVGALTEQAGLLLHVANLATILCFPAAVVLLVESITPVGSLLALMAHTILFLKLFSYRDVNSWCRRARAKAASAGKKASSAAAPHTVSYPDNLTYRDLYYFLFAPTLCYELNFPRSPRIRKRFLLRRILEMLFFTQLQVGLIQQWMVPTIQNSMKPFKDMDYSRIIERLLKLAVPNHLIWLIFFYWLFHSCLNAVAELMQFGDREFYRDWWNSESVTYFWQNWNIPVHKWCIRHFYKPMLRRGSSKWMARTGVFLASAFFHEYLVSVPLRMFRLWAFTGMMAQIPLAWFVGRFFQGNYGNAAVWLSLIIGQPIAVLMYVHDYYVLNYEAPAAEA
In words: DGAT CHOK1 Cell Assay. It counts as cell-based. The conditions noted are these: CHOK1 cells transfected with DGAT1, 14C palmitic acid, 1 hour at 37° C., triglyceride by TLC. An excerpt:
Materials for the assay were: petroleum ether (J. T. Baker #9268-22); diethyl ether (Aldrich #30995-8); acetic acid; 1,2-dioleoyl-3-palmitoyl-glycerol (Sigma D-1782); ^[…] Palmitic Acid (56.0 mCi/mmol PerkinElmer Life Sciences # NEC 075H); DMEM/F12 (Gibco #11330-032); fetal bovine serum; L-Glutamine; G418/ml media; DMEM High Glucose (Gibco #11995-065); BSA Fraction V Fatty Acid Free (Roche #100 377); 20×°cm silica gel 60 glass plates (EM Science Plates #5721/7).
CHOK1/DGAT cell culture medium was prepared with DMEM/F12 (Gibco #11330-032), […], and 20 ul G418/ml media. 1,2-dioleoyl-3-palmitoyl-glycerol was prepared by dissolving 10 mg into 1 ml chloroform and stored at −20° C. in 100 μl aliquots. Test compounds were prepared as 10 mM stock solutions in DMSO and store at −20° C. before use. Test dilutions were prepared by five fold serial dilutions over final concentrations.
CHOK1 cells transfected with DGAT1 were diluted in 6 well plates at 2.5×10^5 cells per well and cultured overnight. Cells were then washed twice with PBS. Test compound solutions (10 μl/2 ml media aliquots) in DMEM High Glucose with 0.01% BSA (fatty acid free) were added to cell culture plates at 800 μl per well. ^14C Palmitic acid (0.5 μCi, 5 μl) was added to each well. The plates were incubated for 1 hour at 37° C. After the incubation period, the plates were placed on ice, cells were scraped into media and transferred to microfuge tubes. 400 μl chloroform:methanol (2:1) was added to each tube. Each tube was briefly vortexed by hand, then mechanically vortexed for 10 minutes. Each tube was then centrifuged at 14,000 RPM for 10 minutes at 4° C. and the bottom layer removed and transferred to a new microfuge tube.
Extracted samples were spotted onto TLC plates at 20 μl per lane. The TLC plates were eluted with a solvent mixture of petroleum ether, diethyl ether and acetic acid (80:20:1) and air dried. Trigylceride (TG) spots were visualized by placing in an iodine chamber for several minutes. 1 μl of ^14C palmitic acid (diluted 1:10 in 100% EtOH) was spotted on the TG standard lane (at TG level) as a reference. The TLC plates were wrapped in plastic wrap and placed in a phosphorimager cassette for scanning.
The EC50 values for those compounds tested in this Example were generated using an Excel template, the results of which are shown in Table II: […]
For the compound `CC(C)N(NC(=O)c1ccccc1)C(=O)COc1ccc(F)cc1-c1ccccc1` [Example 11, benzoic acid N′-[2-(5-fluoro-biphenyl-2-yloxy)-acetyl]-N′-isopropyl-hydrazide], the EC50 is 1850 nM. In other words, the single-digit micromolar range. Regarding `CC(C)N(NC(=O)c1ccccc1)C(=O)COc1ccc(F)cc1-c1ccccc1Cl` [Example 2, benzoic acid N′-[2-(2′-chloro-5-fluoro-biphenyl-2-yloxy)-acetyl]-N′-isopropyl-hydrazide], the EC50 was 3100 nM. Against the preceding compound, the EC50 is about 1.7-fold higher. Under `CC(C)N(NC(=O)c1ccccc1)C(=O)CSc1ccccc1-c1cccc(F)c1` [Example 48, benzoic acid N′-[2-(3′-fluoro-biphenyl-2-ylsulfanyl)-acetyl]-N′-isopropyl-hydrazide] stands 3400 nM; under `Cc1cc(F)ccc1-c1cc(F)ccc1OCC(=O)N(NC(=O)c1ccccc1)C(C)C` [Example 25, benzoic acid N′-[2-(5,4′-difluoro-4′-methyl-biphenyl-2-yloxy)-acetyl]-N′-isopropyl-hydrazide], 1370 nM; under `COc1ccccc1-c1ccccc1SCC(=O)N(NC(=O)c1ccccc1)C(C)C` [Example 53, benzoic acid N′-[2-(2′-methoxy-biphenyl-2-ylsulfanyl)-acetyl]-N′-isopropyl-hydrazide], 6700 nM.

In the case of `COc1ccc(-c2ccccc2SCC(=O)N(NC(=O)c2ccccc2)C(C)C)cc1` [Example 55, benzoic acid N′-[2-(4′-methoxy-biphenyl-2-ylsulfanyl)-acetyl]-N′-isopropyl-hydrazide], the EC50 was 2300 nM. In turn, `CC(C)N(NC(=O)c1ccccc1)C(=O)COc1ccc(F)cc1-c1ccc(F)cc1` [Example 1, benzoic acid N′-[2-(5,4′-difluoro-biphenyl-2-yloxy)-acetyl]-N′-isopropyl-hydrazide] returned an EC50 of 8300 nM. For `Cc1ccc(OCC(=O)N(NC(=O)c2ccccc2)C(C)C)c(-c2ccccc2OC(F)(F)F)c1` [Example 31], the EC50 is 776 nM.

As to `CCc1ccccc1-c1cc(F)ccc1OCC(=O)N(NC(=O)c1ccc(OCCOC)cc1)C(C)C` [Example 30, 4-(2-methoxy-ethoxy)-benzoic acid N′-[2-(5-fluoro-2′-ethyl-biphenyl-2-yloxy)-acetyl]-N′-isopropyl hydrazide], the EC50 stood at 1830 nM. In the case of `COc1ccccc1-c1cc(F)ccc1OCC(=O)N(NC(=O)c1ccccc1)C(C)C` [Example 4, benzoic acid N′-[2-(5-fluoro-2′-methoxy-biphenyl-2-yloxy)-acetyl]-N′-isopropyl-hydrazide], the EC50 was found to be 1810 nM. In the case of `CSc1ccccc1-c1cc(F)ccc1OCC(=O)N(NC(=O)c1ccccc1)C(C)C` [Example 13, benzoic acid N′-[2-(5-fluoro-2′-methylsylfanyl-biphenyl-2-yloxy)-acetyl]-N′-isopropyl-hydrazide], the EC50 was 310 nM. Under `CC(C)N(NC(=O)c1ccccc1)C(=O)COc1ccc(F)cc1-c1cccc(Cl)c1` [Example 10] stands 910 nM. On to `CCOc1ccccc1-c1cc(F)ccc1OCC(=O)N(NC(=O)c1ccccc1)C(C)C` [Example 21, benzoic acid N′-[2-(2′-ethoxy-5-fluoro-biphenyl-2-yloxy)-acetyl]-N′-isopropyl-hydrazide], for which the EC50 stood at 1340 nM.

Compound `COC(=O)c1ccccc1-c1cc(F)ccc1OCC(=O)N(NC(=O)c1ccccc1)C(C)C` [Example 18, benzoic acid N′-[2-(2′-methoxycarbonyl-5-fluoro-biphenyl-2-yloxy)-acetyl]-N′-isopropyl-hydrazide] displayed an EC50 of 2690 nM. For the compound `CCc1ccccc1-c1cc(C#N)ccc1OCC(=O)N(NC(=O)c1ccccc1)C(C)C` [Example 29, benzoic acid N′-[2-(5-cyano-2′-ethyl-biphenyl-2-yloxy)-acetyl]-N′-isopropyl-hydrazide], the EC50 is 1370 nM. Under `CC(C)N(NC(=O)c1ccccc1)C(=O)CSc1ccccc1-c1cccc(C(F)(F)F)c1` [Example 52, benzoic acid N′-[2-(3′-trifluoromethyl-biphenyl-2-ylsulfanyl)-acetyl]-N′-isopropyl-hydrazide] stands 1600 nM.
